Data as given in PubChem BioAssay AID2060603 (Molecular Pharmacology Branch, DTP, NCI, 2025).
Several values for one entry are separate records, joined by “and”; a condition that tells them apart may be missing. Equal values may be shown once.

Test system: 422866-222-R5-J1-PDC spheroid viability
Assay: Anticancer human tumor 422866-222-R5-J1-PDC patient-derived pancreatic adenocarcinoma cell line growth inhibition [CLK]
Conditions: spheroids with HUVEC and MSC; for viability, T/C: stronger effect = lower value
How it was run: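 Patient-derived tumor cells grown as complex spheroids with HUVEC endothelial cells and mesenchymal stem cells, treated with drug combinations. Concentrations descend in half-log steps from near clinical Cmax, or from 10 microM if Cmax unknown.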

[1] = curve of first compound, second compound 0.0316 µM
[2] = curve of first compound, second compound 0.1 µM
[3] = curve of first compound, second compound 0.316 µM
[4] = curve of first compound, second compound 1 µM
[5] = curve of first compound, second compound 3.16 µM
[6] = curve of first compound, second compound 10 µM
[7] = second compound 0.0316 µM, first compound 0.00316 µM
[8] = second compound 0.0316 µM, first compound 0.01 µM
[9] = second compound 0.0316 µM, first compound 0.0316 µM
[10] = second compound 0.0316 µM, first compound 0.1 µM
[11] = second compound 0.0316 µM, first compound 0.316 µM
[12] = second compound 0.0316 µM, first compound 1 µM
[13] = second compound 0.1 µM, first compound 0.00316 µM
[14] = second compound 0.1 µM, first compound 0.01 µM
[15] = second compound 0.1 µM, first compound 0.0316 µM
[16] = second compound 0.1 µM, first compound 0.1 µM
[17] = second compound 0.1 µM, first compound 0.316 µM
[18] = second compound 0.1 µM, first compound 1 µM
[19] = second compound 0.316 µM, first compound 0.00316 µM
[20] = second compound 0.316 µM, first compound 0.01 µM
[21] = second compound 0.316 µM, first compound 0.0316 µM
[22] = second compound 0.316 µM, first compound 0.1 µM
[23] = second compound 0.316 µM, first compound 0.316 µM
[24] = second compound 0.316 µM, first compound 1 µM
[25] = second compound 1 µM, first compound 0.00316 µM
[26] = second compound 1 µM, first compound 0.01 µM
[27] = second compound 1 µM, first compound 0.0316 µM
[28] = second compound 1 µM, first compound 0.1 µM
[29] = second compound 1 µM, first compound 0.316 µM
[30] = second compound 1 µM, first compound 1 µM
[31] = second compound 3.16 µM, first compound 0.00316 µM
[32] = second compound 3.16 µM, first compound 0.01 µM
[33] = second compound 3.16 µM, first compound 0.0316 µM
[34] = second compound 3.16 µM, first compound 0.1 µM
[35] = second compound 3.16 µM, first compound 0.316 µM
[36] = second compound 3.16 µM, first compound 1 µM
[37] = second compound 10 µM, first compound 0.00316 µM
[38] = second compound 10 µM, first compound 0.01 µM
[39] = second compound 10 µM, first compound 0.0316 µM
[40] = second compound 10 µM, first compound 0.1 µM
[41] = second compound 10 µM, first compound 0.316 µM
[42] = second compound 10 µM, first compound 1 µM
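Also: spheroids exposed to agents for seven days before readout.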

Q: What does the source list for `C=C(F)C(=O)N1CCN(c2nc(OCC3CCCN3C)nc3c2CCN(c2cccc4cccc(Cl)c24)C3)CC1CC#N` (stereo unspecified)?
A: viability, T/C (compound 0.0316 µM): 31.6% and 42%; viability, T/C (compound 0.1 µM): 23.6% and 24.5%; viability, T/C (compound 0.316 µM): 19.6% and 21%; viability, T/C (compound 1 µM): 26.1% and 22.8%; viability, T/C (compound 3.16 µM): 11.2% and 15.2%; viability, T/C (compound 10 µM): 0.14%; IC50 (curve of compound): < 31.6 nM

Q: Which results are given for `CCc1c2c(nc3ccc(O)cc13)-c1cc3c(c(=O)n1C2)COC(=O)[C@]3(O)CC` + CNC(=O)c1ccc(Nc2nc(OC3CCCC3)c3c(-c4ccc5nc(C)oc5c4)c[nH]c3n2)c(OC)c1?
A: IC50 [1]: < 3.16 nM; IC50 [2]: < 3.16 nM; IC50 [3]: < 3.16 nM; IC50 [4]: < 3.16 nM; IC50 [5]: < 3.16 nM; IC50 [6]: < 3.16 nM; viability, T/C [7]: 45.6%; viability, T/C [8]: 46.4%; viability, T/C [9]: 51%; viability, T/C [10]: 46.5%; viability, T/C [11]: 42.7%; viability, T/C [12]: 16.4%; viability, T/C [13]: 49.1%; viability, T/C [14]: 43.8%; viability, T/C [15]: 40.2%; viability, T/C [16]: 38%; viability, T/C [17]: 40%; viability, T/C [18]: 19.6%; viability, T/C [19]: 42.3%; viability, T/C [20]: 33.2%; viability, T/C [21]: 30.9%; viability, T/C [22]: 38.5%; viability, T/C [23]: 27.6%; viability, T/C [24]: 24.5%; viability, T/C [25]: 46.8%; viability, T/C [26]: 28.1%; viability, T/C [27]: 38.2%; viability, T/C [28]: 42.4%; viability, T/C [29]: 20.8%; viability, T/C [30]: 25.8%; viability, T/C [31]: 41.9%; viability, T/C [32]: 38.7%; viability, T/C [33]: 33%; viability, T/C [34]: 39.8%; viability, T/C [35]: 22.6%; viability, T/C [36]: 23.3%; viability, T/C [37]: 31.2%; viability, T/C [38]: 27.5%; viability, T/C [39]: 38.4%; viability, T/C [40]: 32.7%; viability, T/C [41]: 23.7%; viability, T/C [42]: 28.7%

Q: How did the IC50 [1] turn out when `COc1c(OCCCN2CCOCC2)ccc2c3n(c(=NC(=O)c4cnc(N)nc4)nc12)CCN3` + CN1CCN(c2cc(C(=O)Nc3cc4cc(-c5cnn(C)c5)ccc4cn3)ccn2)CC1 was run?
A: The IC50 was 22 nM.

Q: And the IC50 [2]?
A: Its IC50 is 26.3 nM.

Q: And the IC50 [3]?
A: The IC50 was 22.6 nM.

Q: What about the IC50 [4] of the same compound?
A: The IC50 was under 3.16 nM.

Q: And the IC50 [5]?
A: Its IC50 is under 3.16 nM.

Q: And the IC50 [6]?
A: The IC50 was under 3.16 nM.

Q: What about the viability, T/C [7] of the same compound?
A: Its viability, T/C is 99.3%.

Q: What about the viability, T/C [8] of the same compound?
A: Its viability, T/C is 65.7%.

Q: And the viability, T/C [9]?
A: Its viability, T/C is 43.5%.

Q: What about the viability, T/C [10] of the same compound?
A: The viability, T/C was 33.2%.

Q: What about the viability, T/C [11] of the same compound?
A: Its viability, T/C is 28.9%.

Q: And the viability, T/C [12]?
A: The viability, T/C was 33.4%.

Q: And the viability, T/C [13]?
A: The viability, T/C was 92.2%.

Q: What about the viability, T/C [14] of the same compound?
A: The viability, T/C was 73.2%.

Q: What about the viability, T/C [15] of the same compound?
A: Its viability, T/C is 46.9%.

Q: What about the viability, T/C [16] of the same compound?
A: Its viability, T/C is 31.6%.

Q: And the viability, T/C [17]?
A: The viability, T/C was 32.2%.

Q: And the viability, T/C [18]?
A: The viability, T/C was 34.5%.

Q: And the viability, T/C [19]?
A: Its viability, T/C is 92.8%.

Q: And the viability, T/C [20]?
A: Its viability, T/C is 63%.

Q: And the viability, T/C [21]?
A: The viability, T/C was 46.1%.

Q: What about the viability, T/C [22] of the same compound?
A: The viability, T/C was 35.5%.

Q: And the viability, T/C [23]?
A: The viability, T/C was 30.3%.

Q: What about the viability, T/C [24] of the same compound?
A: The viability, T/C was 37.6%.

Q: And the viability, T/C [25]?
A: The viability, T/C was 33.7%.

Q: What about the viability, T/C [26] of the same compound?
A: The viability, T/C was 33.4%.

Q: What about the viability, T/C [27] of the same compound?
A: Its viability, T/C is 21.6%.

Q: And the viability, T/C [28]?
A: The viability, T/C was 25.6%.

Q: What about the viability, T/C [29] of the same compound?
A: The viability, T/C was 18%.

Q: And the viability, T/C [30]?
A: Its viability, T/C is 23.8%.

Q: What about the viability, T/C [31] of the same compound?
A: The viability, T/C was 9.85%.

Q: And the viability, T/C [32]?
A: The viability, T/C was 13.6%.

Q: And the viability, T/C [33]?
A: The viability, T/C was 11.9%.

Q: And the viability, T/C [34]?
A: The viability, T/C was 10.2%.

Q: What about the viability, T/C [35] of the same compound?
A: Its viability, T/C is 10.4%.

Q: And the viability, T/C [36]?
A: Its viability, T/C is 9.8%.

Q: And the viability, T/C [37]?
A: The viability, T/C was 3.74%.

Q: And the viability, T/C [38]?
A: The viability, T/C was 4.24%.

Q: What about the viability, T/C [39] of the same compound?
A: Its viability, T/C is 3.81%.

Q: What about the viability, T/C [40] of the same compound?
A: The viability, T/C was 1.77%.

Q: And the viability, T/C [41]?
A: Its viability, T/C is 5.18%.

Q: What about the viability, T/C [42] of the same compound?
A: Its viability, T/C is 3.72%.
